# Legend:
# Assay type in all cases: in vivo
# corn (Zea mays) = assay: Test C greenhouse herbicide test, pre- and postemergence; conditions: for Plant response rating, Corn: scale 0 to 100 (0 no effect, 100 complete control)
# Outline: (§1)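 Visual ratings on a 0 to 100 scale (0 = no effect, 100 = complete control) versus untreated controls, scored 13–15 d after treatment. Soil-applied preemergence to seeded loam/sand; foliar postemergence to 1- to 4-leaf plants (2–18 cm) in peat-vermiculite mix; compounds formulated in solvent plus surfactant.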
# [1] = test system: pigweed (Amaranthus retroflexus); assay: as above; conditions: for Plant response rating, Pigweed: scale 0 to 100 (0 no effect, 100 complete control)
# Outline: as §1
# [2] = test system: wheat (winter wheat, Triticum aestivum); assay: as above; conditions: for Plant response rating, Wheat: scale 0 to 100 (0 no effect, 100 complete control)
# Outline: as §1
# [3] = test system: ryegrass, Italian (Italian ryegrass, Lolium multiflorum); assay: as above; conditions: for Plant response rating, Ryegrass, Italian: scale 0 to 100 (0 no effect, 100 complete control)
# Outline: as §1
# [4] = test system: crabgrass, large (large crabgrass, Digitaria sanguinalis); assay: as above; conditions: for Plant response rating, Crabgrass, Large: scale 0 to 100 (0 no effect, 100 complete control)
# Outline: as §1
# [5] = test system: morningglory (Ipomoea coccinea); assay: as above; conditions: for Plant response rating, Morningglory: scale 0 to 100 (0 no effect, 100 complete control)
# Outline: as §1
# [6] = test system: barnyardgrass (Echinochloa crus-galli); assay: as above; conditions: Postemergence
# Outline: as §1
# [7] = test system: ragweed (common ragweed, Ambrosia elatior); assay: as above; conditions: for Plant response rating, Ragweed: scale 0 to 100 (0 no effect, 100 complete control)
# Outline: as §1
# [8] = test system: foxtail, giant (giant foxtail, Setaria faberii); assay: as above; conditions: for Plant response rating, Foxtail, Giant: scale 0 to 100 (0 no effect, 100 complete control)
# Outline: as §1
# [9] = test system: blackgrass (Alopecurus myosuroides); assay: as above; conditions: for Plant response rating, Blackgrass: scale 0 to 100 (0 no effect, 100 complete control)
# Outline: as §1
# soybean (Glycine max) = assay: as above; conditions: for Plant response rating, Soybean: scale 0 to 100 (0 no effect, 100 complete control)
# Outline: as §1
# [10] = test system: waterhemp (common waterhemp, Amaranthus rudis); assay: as above; conditions: for Plant response rating, Waterhemp: scale 0 to 100 (0 no effect, 100 complete control)
# Outline: as §1
# [11] = test system: lambsquarters (Chenopodium album); assay: as above; conditions: for Plant response rating, Lambsquarters: scale 0 to 100 (0 no effect, 100 complete control)
# Outline: as §1
# [12] = test system: johnsongrass (Sorghum halepense); assay: as above; conditions: for Plant response rating, Johnsongrass: scale 0 to 100 (0 no effect, 100 complete control)
# Outline: as §1
# [13] = test system: oat, wild (wild oat, Avena fatua); assay: Test C greenhouse herbicide test, postemergence; conditions: for Plant response rating, Oat, Wild: scale 0 to 100 (0 no effect, 100 complete control)
# Outline: (§2)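 Ratings are visual scores from 0 (no effect) to 100 (complete control), made against controls 13–15 d after treatment. Postemergence sprays were applied in the greenhouse to plants 2–18 cm tall (1- to 4-leaf stage) in peat-moss/vermiculite potting medium.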
# kochia (Kochia scoparia) = assay: Test C greenhouse herbicide test, postemergence; conditions: for Plant response rating, Kochia: scale 0 to 100 (0 no effect, 100 complete control)
# Outline: as §2
# [14] = Postemergence, 62 g ai/ha, 0 to 100 scale (0 no effect, 100 complete control)
# [15] = postemergence, 125 g ai/ha, scale 0 to 100, 0 no effect, 100 complete control
smiles,measurement,setting,value
COC(=O)Oc1cnn(C)c(=O)c1-c1c(C)ccc2ccccc12 [Compound 143],"Plant response rating, Corn","corn (Zea mays); Postemergence, 16 g ai/ha",0
same,"Plant response rating, Corn","corn (Zea mays); Postemergence, 31 g ai/ha",5
same,Corn plant response rating,corn (Zea mays); [14],0
same,Corn plant response rating,corn (Zea mays); [15],5
same,"Plant response rating, Pigweed","[1]; Postemergence, 16 g ai/ha",50
same,"Plant response rating, Pigweed","[1]; Postemergence, 31 g ai/ha",50
same,Pigweed plant response rating,[1]; [14],65
same,Pigweed plant response rating,[1]; [15],75
same,"Plant response rating, Wheat","[2]; Postemergence, 16 g ai/ha",0
same,"Plant response rating, Wheat","[2]; Postemergence, 31 g ai/ha",5
same,Wheat plant response rating,[2]; [14],35
same,Wheat plant response rating,[2]; [15],15
same,"Plant response rating, Ryegrass, Italian","[3]; Postemergence, 16 g ai/ha",45
same,"Plant response rating, Ryegrass, Italian","[3]; Postemergence, 31 g ai/ha",55
same,"Ryegrass, Italian plant response rating",[3]; [14],60
same,"Ryegrass, Italian plant response rating",[3]; [15],90
same,"Plant response rating, Crabgrass, Large","[4]; Postemergence, 16 g ai/ha",5
same,"Plant response rating, Crabgrass, Large","[4]; Postemergence, 31 g ai/ha",10
same,"Crabgrass, Large plant response rating",[4]; [14],10
same,"Crabgrass, Large plant response rating",[4]; [15],30
same,"Plant response rating, Morningglory","[5]; Postemergence, 16 g ai/ha",30
same,"Plant response rating, Morningglory","[5]; Postemergence, 31 g ai/ha",50
same,Morningglory plant response rating,[5]; [14],65
same,Morningglory plant response rating,[5]; [15],70
same,"Plant response rating, Barnyardgrass","[6]; 16 g ai/ha, scale 0 to 100 (0 no effect, 100 complete control)",15
same,"Plant response rating, Barnyardgrass","[6]; 31 g ai/ha, scale 0 to 100 (0 no effect, 100 complete control)",20
same,Barnyardgrass plant response rating,"[6]; 62 g ai/ha, 0 to 100 scale (0 no effect, 100 complete control)",25
same,"Plant response rating, Barnyardgrass","[6]; 125 g ai/ha, scale 0 to 100, 0 is no effect, 100 is complete control",30
same,"Plant response rating, Ragweed","[7]; Postemergence, 16 g ai/ha",0
same,"Plant response rating, Ragweed","[7]; Postemergence, 31 g ai/ha",0
same,Ragweed plant response rating,[7]; [14],30
same,Ragweed plant response rating,[7]; [15],70
same,"Plant response rating, Foxtail, Giant","[8]; Postemergence, 16 g ai/ha",5
same,"Plant response rating, Foxtail, Giant","[8]; Postemergence, 31 g ai/ha",5
same,"Foxtail, Giant plant response rating",[8]; [14],5
same,"Foxtail, Giant plant response rating",[8]; [15],20
same,"Plant response rating, Blackgrass","[9]; Postemergence, 16 g ai/ha",0
same,"Plant response rating, Blackgrass","[9]; Postemergence, 31 g ai/ha",5
same,Blackgrass plant response rating,[9]; [14],5
same,Blackgrass plant response rating,[9]; [15],20
same,"Plant response rating, Soybean","soybean (Glycine max); Postemergence, 16 g ai/ha",0
same,"Plant response rating, Soybean","soybean (Glycine max); Postemergence, 31 g ai/ha",0
same,Soybean plant response rating,soybean (Glycine max); [14],15
same,Soybean plant response rating,soybean (Glycine max); [15],20
same,"Plant response rating, Waterhemp","[10]; Postemergence, 16 g ai/ha",25
same,"Plant response rating, Waterhemp","[10]; Postemergence, 31 g ai/ha",40
same,Waterhemp plant response rating,[10]; [14],55
same,Waterhemp plant response rating,[10]; [15],90
same,"Plant response rating, Lambsquarters","[11]; Postemergence, 16 g ai/ha",10
same,"Plant response rating, Lambsquarters","[11]; Postemergence, 31 g ai/ha",50
same,Lambsquarters plant response rating,[11]; [14],60
same,Lambsquarters plant response rating,[11]; [15],75
same,"Plant response rating, Johnsongrass","[12]; Postemergence, 16 g ai/ha",10
same,"Plant response rating, Johnsongrass","[12]; Postemergence, 31 g ai/ha",10
same,Johnsongrass plant response rating,[12]; [14],25
same,Johnsongrass plant response rating,[12]; [15],20
same,"Plant response rating, Oat, Wild","[13]; Postemergence, 16 g ai/ha",30
same,"Plant response rating, Oat, Wild","[13]; Postemergence, 31 g ai/ha",40
same,"Oat, Wild plant response rating",[13]; [14],55
same,"Oat, Wild plant response rating",[13]; [15],60
same,"Plant response rating, Kochia","kochia (Kochia scoparia); Postemergence, 16 g ai/ha",0
same,"Plant response rating, Kochia","kochia (Kochia scoparia); Postemergence, 31 g ai/ha",30
same,Kochia plant response rating,kochia (Kochia scoparia); [14],60
same,Kochia plant response rating,kochia (Kochia scoparia); [15],60
